Values of other authors, collected in patent US20020136782A1, “Composition patent for solid-dosage form of weight loss product” (priority 2001, published 2002).

Conditions: non-toxic dose; equivalent doses

Row | Substance | chromosome damage
1 | Chromium picolinate | significant chromosome damage
2 | chromium polynicotinate | did not cause chromosome damage
